The values below come from patent publication US4806361A, “Medicaments in sustained release unit dose form” (Sterling Drug Inc., priority 1984, dated 1989).

For series [1] the following is noted: pH 6.0-7.0; cited from earlier work.
The nature of series [2]: Urinary recovery of active ingredient over 0-24 hours (HPLC). Conditions: in vivo. The arrangement: species or system human. The procedure: After measuring volume and pH, aliquots were stored below -15° C. pending assay for the active ingredient by a validated HPLC procedure.
The resulting linear regression was used to determine urine concentrations of the active ingredient in each sample. Recovered amounts of the active ingredient were then calculated from the urine volume for the collection period of each sample.

Structures are written as SMILES.

Consider `OCCN(CCO)c1nc(N2CCCCC2)c2nc(N(CCO)CCO)nc(N3CCCCC3)c2n1` [dipyridamole], for which, in series [1], the “Solubility” value was “insoluble”.

With `Cc1[nH]c(=O)c(C#N)cc1-c1ccncc1` [1,2-dihydro-3-cyano-6-methyl-5-(4-pyridinyl)-2(1H)-pyridinone], in series [2], the “Excretion” value is listed as “excreted in the urine” and the “Metabolism” value is recorded as “only slightly metabolized”.
